Values quoted from earlier work as cited in PubChem BioAssay AID1259409 (Chemical Carcinogenesis Research Information System (CCRIS), 2018).

Tested on: rodent chemically induced tumor inhibition, incidence and multiplicity
Test: CCRIS tumor inhibitor studies
Details: Route [Inhibitor]: ORAL, Species: RAT, Promoter: NONE USED
Text: The CCRIS database contains chemical records with carcinogenicity, mutagenicity, tumor promotion, and tumor inhibition test results. It was developed by the National Cancer Institute (NCI). Data are derived from studies cited in primary journals, current awareness tools, NCI reports, and other sources. Test results have been reviewed by experts in carcinogenesis and mutagenesis.
CCRIS provides historical information from the years 1985 - 2011. It is no longer updated.
This is an archive assay for CCRIS tumor inhibitor studies.

S=C=NCCc1ccccc1
tumour outcome (control, treated, inhibition, significance) (Carcinogen: DIETHYLNITROSAMINE, 55-18-5, N-METHYL-N-NITROSOUREA, 684-93-5, N-BUTYL-N-(4-HYDROXYBUTYL)NITROSAMINE, 3817-11-6, DIMETHY, Carcinogen: DIETHYLNITROSAMINE, 55-18-5, N-METHYL-N-NITROSOUREA, 684-93-5, N-BUTYL-N-(4-HYDROXYBUTYL)NITROSAMINE, 3817-11-6, DIMETHY, Dose [Inhibitor]: 0, 0.1% IN THE DIET FOR 30 D BEGINNING 1 DAY PRIOR TO CARCINOGEN TREATMENT (STUDY DURATION: 28 WK), Strain/Sex: F344/MALE, Target Tissue: Type of Lesion: LARGE INTESTINE: ADENOMA, Dose [Carcinogen]: 100 MG/KG BW DEN ONCE FOLLOWED BY 20 MG/KG BW MNU 4 TIMES AND 0.05% BBN IN DRINKING WATER DURING FIRST 2 WK THEN 40 MG/K): 27%, 54%, -100%, not significant
tumour outcome (control, treated, inhibition, significance) (Carcinogen: DIETHYLNITROSAMINE, 55-18-5, N-METHYL-N-NITROSOUREA, 684-93-5, N-BUTYL-N-(4-HYDROXYBUTYL)NITROSAMINE, 3817-11-6, DIMETHY, Carcinogen: DIETHYLNITROSAMINE, 55-18-5, N-METHYL-N-NITROSOUREA, 684-93-5, N-BUTYL-N-(4-HYDROXYBUTYL)NITROSAMINE, 3817-11-6, DIMETHY, Dose [Inhibitor]: 0, 0.1% IN THE DIET FOR 30 D BEGINNING 1 DAY PRIOR TO CARCINOGEN TREATMENT (STUDY DURATION: 28 WK), Strain/Sex: F344/MALE, Target Tissue: Type of Lesion: SMALL INTESTINE: CARCINOMA, Dose [Carcinogen]: 100 MG/KG BW DEN ONCE FOLLOWED BY 20 MG/KG BW MNU 4 TIMES AND 0.05% BBN IN DRINKING WATER DURING FIRST 2 WK THEN 40 MG/K): 7%, 23%, -229%, not significant
tumour outcome (control, treated, inhibition, significance) (Carcinogen: DIETHYLNITROSAMINE, 55-18-5, N-METHYL-N-NITROSOUREA, 684-93-5, N-BUTYL-N-(4-HYDROXYBUTYL)NITROSAMINE, 3817-11-6, DIMETHY, Carcinogen: DIETHYLNITROSAMINE, 55-18-5, N-METHYL-N-NITROSOUREA, 684-93-5, N-BUTYL-N-(4-HYDROXYBUTYL)NITROSAMINE, 3817-11-6, DIMETHY, Dose [Inhibitor]: 0, 0.1% IN THE DIET FOR 30 D BEGINNING 1 DAY PRIOR TO CARCINOGEN TREATMENT (STUDY DURATION: 28 WK), Strain/Sex: F344/MALE, Target Tissue: Type of Lesion: THYROID: CARCINOMA, Dose [Carcinogen]: 100 MG/KG BW DEN ONCE FOLLOWED BY 20 MG/KG BW MNU 4 TIMES AND 0.05% BBN IN DRINKING WATER DURING FIRST 2 WK THEN 40 MG/K): 7%, 8%, -14%, not significant
tumour outcome (control, treated, inhibition, significance) (Carcinogen: DIETHYLNITROSAMINE, 55-18-5, N-METHYL-N-NITROSOUREA, 684-93-5, N-BUTYL-N-(4-HYDROXYBUTYL)NITROSAMINE, 3817-11-6, DIMETHY, Carcinogen: DIETHYLNITROSAMINE, 55-18-5, N-METHYL-N-NITROSOUREA, 684-93-5, N-BUTYL-N-(4-HYDROXYBUTYL)NITROSAMINE, 3817-11-6, DIMETHY, Dose [Inhibitor]: 0, 0.1 IN THE DIET FOR 30 D BEGINNING 1 DAY PRIOR TO CARCINOGEN TREATMENT (STUDY DURATION: 28 WK), Strain/Sex: F344/MALE, Target Tissue: Type of Lesion: SMALL INTESTINE: ADENOMA, Dose [Carcinogen]: 100 MG/KG BW DEN ONCE FOLLOWED BY 20 MG/KG BW MNU 4 TIMES AND 0.05% BBN IN DRINKING WATER DURING FIRST 2 WK THEN 40 MG/K): 33%, 31%, 6%, not significant
tumour outcome (control, treated, inhibition, significance) (Carcinogen: DIETHYLNITROSAMINE, 55-18-5, N-METHYL-N-NITROSOUREA, 684-93-5, N-BUTYL-N-(4-HYDROXYBUTYL)NITROSAMINE, 3817-11-6, DIMETHY, Carcinogen: DIETHYLNITROSAMINE, 55-18-5, N-METHYL-N-NITROSOUREA, 684-93-5, N-BUTYL-N-(4-HYDROXYBUTYL)NITROSAMINE, 3817-11-6, DIMETHY, Dose [Inhibitor]: 0.1% IN THE DIET FOR 30 D BEGINNING 1 DAY PRIOR TO CARCINOGEN TREATMENT (STUDY DURATION: 28 WK), Strain/Sex: F344/MALE, Target Tissue: Type of Lesion: URINARY BLADDER: CARCINOMA, Dose [Carcinogen]: 100 MG/KG BW DEN ONCE FOLLOWED BY 20 MG/KG BW MNU 4 TIMES AND 0.05% BBN IN DRINKING WATER DURING FIRST 2 WK THEN 40 MG/K): 7%, 0%, 100%, not significant
tumour outcome (control, treated, inhibition, significance) (Carcinogen: DIETHYLNITROSAMINE, 55-18-5, N-METHYL-N-NITRSOUREA, 684-93-5, N-BUTYL-N-(4-HYDROXYBUTYL)NITROSAMINE, 3817-11-6, DIMETHYL, Carcinogen: DIETHYLNITROSAMINE, 55-18-5, N-METHYL-N-NITRSOUREA, 684-93-5, N-BUTYL-N-(4-HYDROXYBUTYL)NITROSAMINE, 3817-11-6, DIMETHYL, Dose [Inhibitor]: 0, 0.1% IN THE DIET FOR 30 D BEGINNING 1 DAY PRIOR TO CARCINOGEN TREATMENT (STUDY DURATION: 28 WK), Strain/Sex: F344/MALE, Target Tissue: Type of Lesion: URINARY BLADDER: PAPILLOMA, Dose [Carcinogen]: 100 MG/KG BW DEN ONCE FOLLOWED BY 20 MG/KG BW MNU 4 TIMES AND 0.05% BBN IN DRINKING WATER DURING FIRST 2 WK THEN 40 MG/K): 7%, 0%, 100%, not significant
tumour outcome (control, treated, inhibition, significance) (Carcinogen: N-BUTYL-N(4-HYDROXYBUTYL)NITROSAMINE (3817-11-6), Dose [Inhibitor]: 0.5 UMOL/G IN DIET BEGINNING 1 WK BEFORE CARCINOGEN EXPOSURE (STUDY DURATION: 16 WK), Strain/Sex: WISTAR/MALE, Target Tissue: Type of Lesion: URINARY BLADDER: PAPILLOMA, Dose [Carcinogen]: 0.025% IN DRINKING WATER FOR 15 WK): 38/40 (95%), 26/30 (87%), 8%, not significant
